# Like-named read-outs stand apart in the source and are kept apart here.
# Experiments:
# [1] = system: subcutaneous Hey (Human Ovarian Cancer) tumors; conditions: 100 mg/kg FUDR/Saline × 2 (1 & 14 days), i.p., 20 μL
# Method: In this study, SCID mice bearing established (˜0.5 cm diameter) SC ovarian (Hey) tumors were used in this study and were randomized to equalize the tumor volume prior to initiation of drug therapy. Doses of 50 and 100 mg/kg were administered intratumorally. Floxuridine in saline at 100 mg/kg was administered by intraperitoneal injection. ATRIGEL® alone was administered in a volume equal to the 100 mg/kg group.
# Mice were injected with 10×10^6 Hey (Human Ovarian Cancer) cells. When the average tumor diameter was approximately 0.5 cm, mice were divided into treatment groups such that the mean tumor volume in each group was equivalent and drug was administered. […] The volume of Floxuridine/polymer used was calculated assuming total release of drug from the polymer and a drug concentration of 0.10 mg/μL of polymer. […]
# • All SCID mice used for this study were screened for IgG production and those mice producing IgG (“leaky”) were eliminated from the study group. • Mice were injected with 10×10^6 Hey cells. • When tumors achieved approximately 0.5 cm diameter, drug treatments were initiated. […] All treatments consisted of two injections (Days 1 and 14). • Mice were monitored weekly for weight, tumor size and toxicity symptoms (survival, general health, fur condition, etc.) for at least 5 weeks and the efficacy was compared
# [2] = Dog; cited from earlier work
# [3] = Rat; cited from earlier work
# [4] = mouse at 2.5 and 100 mg/kg (cleft palate, skeletal defects, limb deformities); cited from earlier work
# [5] = Mouse; cited from earlier work
# [6] = cited from earlier work
# [7] = Rabbit; cited from earlier work
# [8] = cited from earlier work; remark: listed apart in the source
# mouse embryo fibroblasts = conditions: cited from earlier work
smiles,measurement,setting,value
"O=c1[nH]c(=O)n([C@H]2C[C@H](O)[C@@H](CO)O2)cc1F [FUDR, 5-fluorodeoxyuridine]",Mortality (%),[1],0%
same,Mortality (%),[1]; listed as free Floxuridine,all surviving
same,Lethal Intravenous Doses,[2],157 +/− 46
same,Lethal Intravenous Doses,[3],670 +/− 73
same,Teratogenicity,[4],Teratogenic
same,Lethal Intravenous Doses,[5],880 +/− 51
same,"MTD, cumulative dose",[6]; 50 mg/kg/day × 5 days,250 mg/kg
same,maximum tolerated dose (MTD),"[6]; normal (immunocompetent) mice, intraperitoneal injection, × 5 days",50 mg/kg/day
same,Lethal Intravenous Doses,[7],94 +/− 19.6
same,"Reproductive Toxicant, female",[8]; female rats at 25 or 50 mg/kg,reproductive toxicity
same,Teratogenicity,"[8]; rat at 75 and 150 mg/kg (cleft palate, skeletal defects, limb deformities)",Teratogenic
same,"Reproductive Toxicant, male",[8]; rats at 125-250 mg/kg i.p.,spermato-toxic
same,Mutagenicity,mouse embryo fibroblasts,Mutagenic
